In general, melting point refers to the temperature of the solid-liquid transition.

`N#CCCC(=O)N[C@H]1CC[C@H](CCN2CCN(c3ccc(Cl)c(Cl)c3F)CC2)CC1` [Example 720, 3-Cyano-N-(4-{2-[4-(3,4-dichloro-2-fluorophenyl)piperazin-1-yl]ethyl}cyclohexyl)propanamide] showed a melting point of 210 °C.

`Cc1cc(F)cc(N2CCN(CC[C@H]3CC[C@H](NC(=O)CC#N)CC3)CC2)c1` [Example 725, 2-Cyano-N-(4-{2-[4-(3-fluoro-5-methylphenyl)piperazin-1-yl]ethyl}cyclohexyl)acetamide] displayed a melting point of 180 °C. In the case of `Cc1cc(F)cc(N2CCN(CC[C@H]3CC[C@H](NC(=O)CCCC#N)CC3)CC2)c1` [Example 726, 4-Cyano-N-(4-{2-[4-(3-fluoro-5-methylphenyl)piperazin-1-yl]ethyl}cyclohexyl)butanamide] it was 150 °C.

As for `N#CCC(=O)N[C@H]1CC[C@H](CCN2CCN(c3ccc(Cl)c(Cl)c3Cl)CC2)CC1` [Example 729, 2-Cyano-N-(4-{2-[4-(2,3,4-trichlorophenyl)piperazin-1-yl]ethyl}cyclohexyl)acetamide], the melting point came out at 217 °C. In the case of `N#CCCCCC(=O)N[C@H]1CC[C@H](CCN2CCN(c3cc(C(F)(F)F)ccc3F)CC2)CC1` [Example 731] it was 158 °C; in that of `N#CCCC(=O)N[C@H]1CC[C@H](CCN2CCN(c3ccc(F)c(Cl)c3F)CC2)CC1` [Example 732, N-(4-{2-[4-(3-Chloro-2,4-difluorophenyl)piperazin-1-yl]ethyl}cyclohexyl)-3-cyanopropanamide], 190 °C. As for `N#CCCC(=O)N1CCC(CCN2CCN(c3cccc(Cl)c3Cl)CC2)CC1` [Example 733, 4-(4-{2-[4-(2,3-Dichlorophenyl)piperazin-1-yl]ethyl}piperidin-1-yl)-4-oxobutanonitrile], the figure is 94 °C; as for `COCC(=O)N[C@H]1CC[C@H](CCN2CCN(c3cccc(C(F)(F)F)c3C)CC2)CC1` [Example 734, 2-Methoxy-N-(4-{2-[4-(2-methyl-3-trifluoromethylphenyl)piperazin-1-yl]ethyl}cyclohexyl)acetamide], 159 °C. In the case of `COCCCC(=O)N[C@H]1CC[C@H](CCN2CCN(c3cccc(C(F)(F)F)c3C)CC2)CC1` [Example 735, 4-Methoxy-N-(4-{2-[4-(2-methyl-3-trifluoromethylphenyl)piperazin-1-yl]ethyl}cyclohexyl)butanamide] it was 173 °C; in that of `O=C(CCC(F)(F)F)N[C@H]1CC[C@H](CCN2CCN(c3cc(C(F)(F)F)ccc3F)CC2)CC1` [Example 736, 4,4,4-Trifluoro-N-(4-{2-[4-(2-fluoro-5-trifluoromethyl-phenyl)piperazin-1-yl]ethyl}cyclohexyl)butanamide], 182 °C; in that of `NC(=O)CC(=O)N[C@H]1CC[C@H](CCN2CCN(c3cc(C(F)(F)F)cc(C(F)(F)F)c3)CC2)CC1` [Example 738, N-(4-{2-[4-(3,5-Bistrifluoro-methylphenyl)piperazin-1-yl]ethyl}cyclohexyl)malonamide], 165 °C. In turn, `COCCCC(=O)N[C@H]1CC[C@H](CCN2CCN(c3cc(F)cc(Cl)c3)CC2)CC1` [Example 740, N-(4-{2-[4-(3-Chloro-5-fluorophenyl)piperazin-1-yl]ethyl}cyclohexyl)-4-methoxybutanamide] gave a melting point of 177 °C. In the case of `COCCCC(=O)N[C@H]1CC[C@H](CCN2CCN(c3cc(C(F)(F)F)cc(C(F)(F)F)c3)CC2)CC1` [Example 741, N-(4-{2-[4-(3,5-Bistrifluoro-methylphenyl)piperazin-1-yl]ethyl}cyclohexyl)-4-methoxybutanamide] it was 168 °C; in that of `COCC(=O)N[C@H]1CC[C@H](CCN2CCN(c3cc(F)cc(Cl)c3)CC2)CC1` [Example 742, N-(4-{2-[4-(3-Chloro-5-fluorophenyl)piperazin-1-yl]ethyl}cyclohexyl)-2-methoxyacetamide], 132 °C; in that of `N#CCCC(=O)N[C@H]1CC[C@H](CCN2CCN(c3cc(F)cc(Cl)c3)CC2)CC1` [Example 743, N-(4-{2-[4-(3-Chloro-5-fluorophenyl)piperazin-1-yl]ethyl}cyclohexyl)-3-cyanopropanamide], 148 °C. In the case of `CC(=O)CN1CCC(CCN2CCN(c3cc(F)c(F)cc3F)CC2)CC1` [Example 744, 1-(4-{2-[4-(2,4,5-Trifluoro-phenyl)-piperazin-1-yl]ethyl}piperidin-1-yl)propan-2-one] it was 68 °C. As for `N#CCCCCC(=O)NC1CCC(CCN2CCN(c3cccc(C(F)(F)F)c3)CC2)CC1` (stereo not shown) [Example 745, 5-Cyano-pentanoic acid (4-{2-[4-(3-trifluoromethylphenyl)-piperazin-1-yl]ethyl}cyclohexyl) amide], the figure is 90 °C. Regarding `N#CCC(=O)N[C@H]1CC[C@H](CCN2CCN(c3c(F)c(F)c(F)c(F)c3F)CC2)CC1` [Example 753, 2-Cyano-N-{4-[2-(4-pentafluorophenylpiperazin-1-yl)ethyl]cyclohexyl}acetamide], the melting point came to 202 °C. In the case of `COCCCC(=O)N[C@H]1CC[C@H](CCN2CCN(c3ccc(F)c(C(F)(F)F)c3)CC2)CC1` [Example 754, N-(4-{2-[4-(4-Fluoro-3-trifluoromethylphenyl)piperazin-1-yl]ethyl}cyclohexyl)-4-methoxybutanamide] it was 177 °C. As for `COCCCC(=O)N[C@H]1CC[C@H](CCN2CCN(c3ccc(Cl)c(C(F)(F)F)c3)CC2)CC1` [Example 755, N-(4-{2-[4-(4-Chloro-3-trifluoromethylphenyl)piperazin-1-yl]ethyl}cyclohexyl)-4-methoxybutanamide], the figure is 171 °C; as for `N#CCCCC(=O)N[C@H]1CC[C@H](CCN2CCN(c3ccc(Cl)c(C(F)(F)F)c3)CC2)CC1` [Example 756, N-(4-{2-[4-(4-Chloro-3-trifluoromethylphenyl)piperazin-1-yl]ethyl}cyclohexyl)-4-cyanobutanamide], 126 °C; as for `COCCCC(=O)N[C@H]1CC[C@H](CCN2CCN(c3cc(F)cc(C(F)(F)F)c3)CC2)CC1` [Example 757, N-(4-{2-[4-(3-Fluoro-5-trifluoromethylphenyl)piperazin-1-yl]ethyl}cyclohexyl)-4-methoxybutanamide], 177 °C.

Consider `COCC(=O)N[C@H]1CC[C@H](CCN2CCN(c3ccc(F)c(C(F)(F)F)c3)CC2)CC1` [Example 760, N-(4-{2-[4-(4-Fluoro-3-trifluoromethylphenyl)piperazin-1-yl]ethyl}cyclohexyl)-2-methoxyacetamide], for which the melting point was found to be 146 °C. As for `COCCCC(=O)N[C@H]1CC[C@H](CCN2CCN(c3ccc(Cl)cc3Cl)CC2)CC1` [Example 761, N-(4-{2-[4-(2,4-Dichlorophenyl)piperazin-1-yl]ethyl}cyclohexyl)-4-methoxybutanamide], the figure is 171 °C.

With `N#CCCCC(=O)N[C@H]1CC[C@H](CCN2CCN(c3ccc(Cl)cc3Cl)CC2)CC1` [Example 762, 4-Cyano-N-(4-{2-[4-(2,4-dichlorophenyl)piperazin-1-yl]ethyl}cyclohexyl)butanamide], the melting point worked out at 162 °C.
